Type in all cases: cell-based
One assay deals with human cyclin D1 IRES. In words: Dicistronic IRES mRNA reporter assay (firefly luciferase), cyclin D1 IRES. Conditions: LN229; relative to values obtained with parent compound C11. As to the method: (§1) Western blot and quantitative RT-PCR analyses were performed as previously described (19). For Western blotting, cells or tissues were lysed in RIPA (lysis) buffer containing protease inhibitor cocktail and phosSTOP phosphatase inhibitor cocktail (Roche) and extracts resolved by SDSPAGE. Proteins were transferred to PVDF membranes and incubated with the indicated antibodies. For IRES reporter assays, the indicated mRNA reporters were cotransfected into cells with pSVβ-galactosidase to normalize for transfection efficiency as described previously (16). Cells were harvested 18 h following transfection and Renilla, firefly and β-galactosidase activities determined using the Dual-Glo Luciferase and β-galactosidase assay systems (Promega).
(§2) (B) Schematic diagrams of the dicistronic constructs used in this study. Constructs used are pRF, pRCD1F, which contains the human cyclin D1 IRES, pRmycF, containing the human c-myc IRES, pRp27F, containing the human p27Kip1 IRES and pRECMVF, containing the IRES from encephalomyocarditis virus. (C) Relative Renilla and firefly luciferase activities obtained from LN229 GBM cells transfected with the indicated constructs in the absence or presence of the inhibitor C11. The mean and +SD are shown for three independent experiments. […] (D) RNA-pull down assays utilizing biotinylated cyclin D1 or c-MYC IRES RNAs. Cytoplasmic extracts of LN229 cells treated with C11 (50 nM) as indicated were incubated with biotinylated cyclin D1 or c-MYC IRES RNAs and precipitated with streptavidin-Sepharose beads. Input and bound fractions were analyzed by immunoblotting using hnRNP A1 antibodies. […] RT-PCR measurements were performed in quadruplicate and the mean and +S.D. are shown. […] (F) Top panel, LN229 cells were treated with C11 as indicated and RT-PCR splicing analysis for Max exon 5 performed as described in the Experimental Methods section. Middle panel, LN229 cells treated with C11 (50 nM) as indicated, were lysed and immunoprecipitated using either eIF-4E or control IgG antibodies. Bound CCND1 or c-MYC RNAs were detected via RT-PCR. The mean and +S.D. are shown for three independent experiments. Bottom panel, cyclin D1 and c-MYC protein levels from the indicated GBM cell lines in the absence or presence of C11 at 24 h following treatment. C11 specifically blocks c-Myc IRES-mediated translation initiation by disrupting the ITAF hnRNP A1-IRES interaction.
(§3) Several dicistronic IRES mRNA reporter constructs were utilized, shown in FIG. 1B, in which the indicated IRES sequences were inserted within the intercistronic region. LN229 cells transiently transfected with these constructs were assayed for Renilla and firefly luciferase activities, which are readouts of cap-dependent and IRES-mediated translation initiation, respectively (16). […]
On the technique in general: Reporter assays use an easily measured gene product as a stand-in for the process of interest.

A further assay concerns human c-myc IRES. In words: Dicistronic IRES mRNA reporter assay (firefly luciferase), c-myc IRES. The note with it: LN229; relative to values obtained with parent compound C11. On the procedure:
as §1, §2, §3

Assay [1] deals with LN229 cells. Briefly: Combination analysis with PP242 (XTT, combination index) in LN229. The note with it: combination of PP242 and analog, CI=1.0 dose additive, CI<0.5 synergy, CI<0.3 strong synergy. The source says:
Fold decrease in either PP242-induced cyclin D1 or c-MYC IRES activity in LN229 relative to values obtained with the parent compound C11 are shown for each analog. […] CI=1.0 (dose additive), CI<0.5 (synergy), CI<0.3 (strong synergy).
The structure-activity relationships (SAR) for C11 and related compounds were investigated by synthesizing and testing the analogs listed in Table 1. […] The degree of apoptotic cell death following co-treatment with analog and PP242 was also monitored.
(Tetrazolium dyes change colour on reduction, which living cells bring about.)

Assay [2] has as its system LN229 cells. In words: Apoptosis via Annexin V staining in LN229. The note with it: LN229 cotreated with PP242 (50 nM) and analog (100 nM), 24 h.

As for `COc1ccc(CN2C(=O)C=CC2=O)c(OC)c1` [IRES-J000, 1-((2,4-Dimethoxyphenyl)methyl)-1H-pyrrole-2,5-dione], the “Cyclin D1 (decrease): fold decrease in PP242-induced cyclin D1 IRES activity” value (“Cyclin D1 (decrease): fold decrease” below) in the assay on human cyclin D1 IRES stood at 1.05 ± 0.21 fold. For the same compound, in the assay on human c-myc IRES, the “c-myc (decrease): fold decrease in PP242-induced c-MYC IRES activity” value (shortened to “c-myc (decrease): fold decrease”) turned out to be 1.01 ± 0.03 fold. Also, the “CI ED50, 1:100 (combination index)” value in the assay on LN229 cells [1] came out at 0.51. Besides, the “% Apoptosis (100 nM)” value with LN229 cells [2] stood at 25.6%.

For `O=C1C=CC(=O)N1Cc1ccccc1` [IRES-J001, 1-Phenylmethyl-1H-pyrrole-2,5-dione], the “Cyclin D1 (decrease): fold decrease” value with human cyclin D1 IRES was determined as 1.49 ± 0.05 fold. Moreover, the “c-myc (decrease): fold decrease” value in the assay on human c-myc IRES came to 1.12 ± 0.13 fold. The “CI ED50, 1:100 (combination index)” value in the assay with LN229 cells [1] was found to be 0.89. For the same compound, the “% Apoptosis (100 nM)” value in the assay with LN229 cells [2] was found to be 30.2%.

Regarding `COc1ccc(CN2C(=O)C=CC2=O)cc1` [IRES-J002, 1-((4-Methoxyphenyl)methyl)-1H-pyrrole-2,5-dione], the “Cyclin D1 (decrease): fold decrease” value with human cyclin D1 IRES is recorded as 1.60 ± 0.18 fold. Also, in the assay on human c-myc IRES, the “c-myc (decrease): fold decrease” value came to 1.37 ± 0.21 fold. Further, the “CI ED50, 1:100 (combination index)” value in the assay with LN229 cells [1] came to 0.86. The “% Apoptosis (100 nM)” value with LN229 cells [2] is given as 28.6%.

On to `O=C1C=CC(=O)N1Cc1ccc(F)cc1` [IRES-J003, 1-((4-Fluorophenyl)methyl)-1H-pyrrole-2,5-dione], for which the “Cyclin D1 (decrease): fold decrease” value with human cyclin D1 IRES came to 0.97 ± 0.06 fold. Besides, the “c-myc (decrease): fold decrease” value in the assay on human c-myc IRES was 1.19 ± 0.04 fold. The “CI ED50, 1:100 (combination index)” value in the assay on LN229 cells [1] is recorded as 0.88. The “% Apoptosis (100 nM)” value with LN229 cells [2] stood at 27.1%.

As for `COc1ccc(CN2C(=O)C(C)=C(C)C2=O)c(OC)c1` [IRES-J004, 1-((2,4-Dimethoxyphenyl)methyl)-3,4-dimethyl-1H-pyrrole-2,5-dione], the “Cyclin D1 (decrease): fold decrease” value with human cyclin D1 IRES came to 1.42 ± 0.07 fold. The “c-myc (decrease): fold decrease” value in the assay on human c-myc IRES is given as 1.39 ± 0.11 fold. In the assay on LN229 cells [1], the “CI ED50, 1:100 (combination index)” value came to 0.82. Also, the “% Apoptosis (100 nM)” value in the assay on LN229 cells [2] is reported as 24.8%.

As for `COc1ccc(CN2C(=O)C(c3ccccc3)=C(c3ccccc3)C2=O)c(OC)c1` [IRES-J005, 1-((2,4-Dimethoxyphenyl)methyl)-3,4-diphenyl-1H-pyrrole-2,5-dione], in the assay on human cyclin D1 IRES, the “Cyclin D1 (decrease): fold decrease” value stood at 1.32 ± 0.14 fold. The “c-myc (decrease): fold decrease” value with human c-myc IRES is on record as 1.28 ± 0.16 fold. Also, the “CI ED50, 1:100 (combination index)” value with LN229 cells [1] came to 0.91. The “% Apoptosis (100 nM)” value with LN229 cells [2] came to 23.5%.

In the case of `COc1ccc(CN2C(=O)CCC2=O)c(OC)c1` [IRES-J006, 1-((2,4-Dimethoxyphenyl)methyl)pyrrolidine-2,5-dione], the “Cyclin D1 (decrease): fold decrease” value in the assay with human cyclin D1 IRES is 1.26 ± 0.10 fold. The “c-myc (decrease): fold decrease” value with human c-myc IRES is 1.25 ± 0.19 fold. In addition, the “CI ED50, 1:100 (combination index)” value with LN229 cells [1] turned out to be 0.94. Besides, the “% Apoptosis (100 nM)” value with LN229 cells [2] is listed as 20.1%.

As to `COc1ccc(N2C(=O)C=CC2=O)cc1` [IRES-J008, 1-(4-Methoxyphenyl)-1H-pyrrole-2,5-dione], the “Cyclin D1 (decrease): fold decrease” value with human cyclin D1 IRES was found to be 5.58 ± 0.16 fold. In addition, in the assay on human c-myc IRES, the “c-myc (decrease): fold decrease” value was 5.92 ± 0.10 fold. Moreover, the “CI ED50, 1:100 (combination index)” value with LN229 cells [1] amounted to 0.39. For the same compound, the “% Apoptosis (100 nM)” value in the assay with LN229 cells [2] was found to be 75.7%.

Consider `O=C1c2ccccc2C(=O)N1Cc1ccccc1` [IRES-J010, 2-(Phenylmethyl)isoindoline-1,3-dione], for which the “Cyclin D1 (decrease): fold decrease” value in the assay on human cyclin D1 IRES is 1.77 ± 0.16 fold. Moreover, in the assay on human c-myc IRES, the “c-myc (decrease): fold decrease” value was found to be 1.94 ± 0.25 fold. Besides, the “CI ED50, 1:100 (combination index)” value in the assay on LN229 cells [1] is listed as 0.83. The “% Apoptosis (100 nM)” value with LN229 cells [2] was 19.7%.

As for `O=C1c2ccccc2C(=O)N1Nc1ccccc1` [IRES-J011, 2-(Phenylamino)isoindoline-1,3-dione], the “Cyclin D1 (decrease): fold decrease” value in the assay on human cyclin D1 IRES stood at 1.91 ± 0.1 fold. For the same compound, in the assay on human c-myc IRES, the “c-myc (decrease): fold decrease” value worked out at 1.64 ± 0.18 fold. For the same compound, the “CI ED50, 1:100 (combination index)” value in the assay with LN229 cells [1] is 0.86. Also, the “% Apoptosis (100 nM)” value in the assay with LN229 cells [2] stood at 22.8%.

In the case of `O=C1c2ccccc2C(=O)N1N(c1ccccc1)c1ccccc1` [IRES-J012, 2-(Diphenylamino)isoindoline-1,3-dione], the “Cyclin D1 (decrease): fold decrease” value with human cyclin D1 IRES came to 1.02 ± 0.31 fold. In the assay with human c-myc IRES, the “c-myc (decrease): fold decrease” value worked out at 1.53 ± 0.17 fold. In the assay on LN229 cells [1], the “CI ED50, 1:100 (combination index)” value stood at 0.89. The “% Apoptosis (100 nM)” value in the assay on LN229 cells [2] was found to be 20.1%.

With `COc1ccc(N2C(=O)c3ccccc3C2=O)cc1` [IRES-J013, 2-(4-Methoxyphenyl)isoindoline-1,3-dione], the “Cyclin D1 (decrease): fold decrease” value in the assay with human cyclin D1 IRES was 1.17 ± 0.21 fold. Also, in the assay with human c-myc IRES, the “c-myc (decrease): fold decrease” value came to 1.72 ± 0.06 fold. In the assay on LN229 cells [1], the “CI ED50, 1:100 (combination index)” value came out at 0.85. Also, in the assay on LN229 cells [2], the “% Apoptosis (100 nM)” value worked out at 19.2%.

For `CN(C)c1ccc(N2C(=O)c3ccccc3C2=O)cc1` [IRES-J014, 2-(4-(Dimethylamino)phenyl)isoindoline-1,3-dione], the “Cyclin D1 (decrease): fold decrease” value in the assay with human cyclin D1 IRES was 1.86 ± 0.27 fold. The “c-myc (decrease): fold decrease” value in the assay with human c-myc IRES was determined as 1.33 ± 0.11 fold. Besides, in the assay with LN229 cells [1], the “CI ED50, 1:100 (combination index)” value is listed as 0.84. The “% Apoptosis (100 nM)” value in the assay with LN229 cells [2] is given as 20.6%.

Take `COCCCN1C(=O)c2ccccc2C1=O` [IRES-J015, 2-(3-Methoxypropyl)isoindoline-1,3-dione]: in the assay on human cyclin D1 IRES, the “Cyclin D1 (decrease): fold decrease” value is reported as 1.61 ± 0.15 fold. Moreover, the “c-myc (decrease): fold decrease” value in the assay with human c-myc IRES is reported as 1.25 ± 0.24 fold. For the same compound, the “CI ED50, 1:100 (combination index)” value in the assay on LN229 cells [1] is reported as 0.88. In addition, the “% Apoptosis (100 nM)” value with LN229 cells [2] is listed as 18.3%.

(Values after patent publication US20210220331A1, “INHIBITORS OF IRES-MEDIATED PROTEIN SYNTHESIS” (The Regents of the University of California, priority 2016, published 2021).)
